Test results from PubChem BioAssay (NCI).
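Cells were grown in 96-well plates and exposed to each compound for 48 hours at five concentrations; endpoints were interpolated linearly between bracketing concentrations, or set to the highest concentration if not reached. At the GI50, growth is halved. TGI is the concentration that stops growth completely.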

Columns and labels:
Assay in all cases: NCI anticancer screen, dose series, 48 h
786-0 renal = test system: 786-0 renal
A498 renal = test system: A498 renal
A549 NSCLC = test system: A549 NSCLC
ACHN renal = test system: ACHN renal
CAKI-1 renal = test system: CAKI-1 renal
CCRF-CEM leukemia = test system: CCRF-CEM leukemia
COLO 205 colon = test system: COLO 205 colon
DU-145 prostate = test system: DU-145 prostate
EKVX NSCLC = test system: EKVX NSCLC
HCT-116 colon = test system: HCT-116 colon
HL-60(TB) leukemia = test system: HL-60(TB) leukemia
HOP-62 NSCLC = test system: HOP-62 NSCLC
HOP-92 NSCLC = test system: HOP-92 NSCLC
HS 578T breast = test system: HS 578T breast
HT29 colon = test system: HT29 colon
IGROV1 ovarian = test system: IGROV1 ovarian
K-562 leukemia = test system: K-562 leukemia
KM12 colon = test system: KM12 colon
LOX IMVI melanoma = test system: LOX IMVI melanoma
M14 melanoma = test system: M14 melanoma
MALME-3M melanoma = test system: MALME-3M melanoma
MDA-MB-231 breast = test system: MDA-MB-231 breast
MDA-MB-435 = test system: MDA-MB-435
MOLT-4 leukemia = test system: MOLT-4 leukemia
NCI-H226 lung = test system: NCI-H226 lung
NCI-H23 lung = test system: NCI-H23 lung
NCI-H460 lung = test system: NCI-H460 lung
NCI-H522 lung = test system: NCI-H522 lung
NCI/ADR-RES ovarian = test system: NCI/ADR-RES ovarian
OVCAR-3 ovarian = test system: OVCAR-3 ovarian
OVCAR-4 ovarian = test system: OVCAR-4 ovarian
OVCAR-5 ovarian = test system: OVCAR-5 ovarian
OVCAR-8 ovarian = test system: OVCAR-8 ovarian
PC-3 prostate = test system: PC-3 prostate
RPMI-8226 leukemia = test system: RPMI-8226 leukemia
RXF 393 renal = test system: RXF 393 renal
SF-268 CNS = test system: SF-268 CNS
SF-295 CNS = test system: SF-295 CNS
SF-539 CNS = test system: SF-539 CNS
SK-MEL-28 melanoma = test system: SK-MEL-28 melanoma
SK-MEL-5 melanoma = test system: SK-MEL-5 melanoma
SN12C renal = test system: SN12C renal
SNB-19 CNS = test system: SNB-19 CNS
SNB-75 CNS = test system: SNB-75 CNS
SR leukemia = test system: SR leukemia
SW-620 colon = test system: SW-620 colon
T-47D breast = test system: T-47D breast
TK-10 renal = test system: TK-10 renal
U251 CNS = test system: U251 CNS
UACC-257 melanoma = test system: UACC-257 melanoma
UACC-62 melanoma = test system: UACC-62 melanoma
UO-31 renal = test system: UO-31 renal
BT-549 breast = test system: BT-549 breast
HCC-2998 colon = test system: HCC-2998 colon
HCT-15 colon = test system: HCT-15 colon
MCF7 breast = test system: MCF7 breast
SK-MEL-2 melanoma = test system: SK-MEL-2 melanoma
SK-OV-3 ovarian = test system: SK-OV-3 ovarian

COC(=O)[C@@H]1CN(C(=O)Cc2ccccc2)C(=O)N1
TGI (786-0 renal): > 100 µM
TGI (A498 renal): > 100 µM
TGI (A549 NSCLC): > 100 µM
TGI (ACHN renal): > 100 µM
TGI (CAKI-1 renal): > 100 µM
TGI (CCRF-CEM leukemia): > 100 µM
TGI (COLO 205 colon): > 100 µM
TGI (DU-145 prostate): > 100 µM
TGI (EKVX NSCLC): > 100 µM
TGI (HCT-116 colon): > 100 µM
TGI (HL-60(TB) leukemia): > 100 µM
TGI (HOP-62 NSCLC): > 100 µM
TGI (HOP-92 NSCLC): > 100 µM
TGI (HS 578T breast): > 100 µM
TGI (HT29 colon): > 100 µM
TGI (IGROV1 ovarian): > 100 µM
TGI (K-562 leukemia): > 100 µM
TGI (KM12 colon): > 100 µM
TGI (LOX IMVI melanoma): > 100 µM
TGI (M14 melanoma): > 100 µM
TGI (MALME-3M melanoma): > 100 µM
TGI (MDA-MB-231 breast): > 100 µM
TGI (MDA-MB-435): > 100 µM
TGI (MOLT-4 leukemia): > 100 µM
TGI (NCI-H226 lung): > 100 µM
TGI (NCI-H23 lung): > 100 µM
TGI (NCI-H460 lung): > 100 µM
TGI (NCI-H522 lung): > 100 µM
TGI (NCI/ADR-RES ovarian): > 100 µM
TGI (OVCAR-3 ovarian): > 100 µM
TGI (OVCAR-4 ovarian): > 100 µM
TGI (OVCAR-5 ovarian): > 100 µM
TGI (OVCAR-8 ovarian): > 100 µM
TGI (PC-3 prostate): > 100 µM
TGI (RPMI-8226 leukemia): > 100 µM
TGI (RXF 393 renal): > 100 µM
TGI (SF-268 CNS): > 100 µM
TGI (SF-295 CNS): > 100 µM
TGI (SF-539 CNS): > 100 µM
TGI (SK-MEL-28 melanoma): > 100 µM
TGI (SK-MEL-5 melanoma): > 100 µM
TGI (SN12C renal): > 100 µM
TGI (SNB-19 CNS): > 100 µM
TGI (SNB-75 CNS): > 100 µM
TGI (SR leukemia): > 100 µM
TGI (SW-620 colon): > 100 µM
TGI (T-47D breast): > 100 µM
TGI (TK-10 renal): > 100 µM
TGI (U251 CNS): > 100 µM
TGI (UACC-257 melanoma): > 100 µM
TGI (UACC-62 melanoma): > 100 µM
TGI (UO-31 renal): > 100 µM

CCCCCCCCCC(=O)Oc1ccc(/C(=C(/C)c2ccccc2)c2ccc(OCCN3CCCC3)cc2)cc1
GI50 (786-0 renal): 8.77 µM
TGI (786-0 renal): 16.8 µM
GI50 (A549 NSCLC): 9.35 µM
TGI (A549 NSCLC): 17.7 µM
GI50 (ACHN renal): 8.16 µM
TGI (ACHN renal): 15.5 µM
GI50 (BT-549 breast): 8.22 µM
TGI (BT-549 breast): 16.8 µM
GI50 (CAKI-1 renal): 6.77 µM
TGI (CAKI-1 renal): 13.9 µM
GI50 (CCRF-CEM leukemia): 9.51 µM
TGI (CCRF-CEM leukemia): 22.3 µM
GI50 (DU-145 prostate): 8 µM
TGI (DU-145 prostate): 14.8 µM
GI50 (EKVX NSCLC): 6.92 µM
TGI (EKVX NSCLC): 13.6 µM
GI50 (HCC-2998 colon): 8.66 µM
TGI (HCC-2998 colon): 17.2 µM
GI50 (HCT-116 colon): 8.01 µM
TGI (HCT-116 colon): 15.7 µM
GI50 (HCT-15 colon): 6.69 µM
TGI (HCT-15 colon): 13.1 µM
GI50 (HL-60(TB) leukemia): 9.24 µM
TGI (HL-60(TB) leukemia): 18.7 µM
GI50 (HOP-62 NSCLC): 8.75 µM
TGI (HOP-62 NSCLC): 17.3 µM
GI50 (HOP-92 NSCLC): 7.01 µM
TGI (HOP-92 NSCLC): 15.4 µM
GI50 (HS 578T breast): 9.55 µM
TGI (HS 578T breast): 32.2 µM
GI50 (IGROV1 ovarian): 8.67 µM
TGI (IGROV1 ovarian): 19.5 µM
GI50 (KM12 colon): 8.78 µM
TGI (KM12 colon): 16.7 µM
GI50 (LOX IMVI melanoma): 8.02 µM
TGI (LOX IMVI melanoma): 14.8 µM
GI50 (MALME-3M melanoma): 7.76 µM
TGI (MALME-3M melanoma): 15.7 µM
GI50 (MCF7 breast): 0.005 µM
TGI (MCF7 breast): 10.3 µM
GI50 (MDA-MB-231 breast): 10.2 µM
TGI (MDA-MB-231 breast): 20.2 µM
GI50 (MDA-MB-435): 7.47 µM
TGI (MDA-MB-435): 14.1 µM
GI50 (MOLT-4 leukemia): 8.61 µM
TGI (MOLT-4 leukemia): 20.3 µM
GI50 (NCI-H226 lung): 9.42 µM
TGI (NCI-H226 lung): 18.5 µM
GI50 (NCI-H23 lung): 7.74 µM
TGI (NCI-H23 lung): 16.1 µM
GI50 (NCI-H460 lung): 8.46 µM
TGI (NCI-H460 lung): 15.9 µM
GI50 (NCI-H522 lung): 9.36 µM
TGI (NCI-H522 lung): 18.4 µM
GI50 (NCI/ADR-RES ovarian): 8.03 µM
TGI (NCI/ADR-RES ovarian): 16.9 µM
GI50 (OVCAR-3 ovarian): 8.18 µM
TGI (OVCAR-3 ovarian): 16.1 µM
GI50 (OVCAR-4 ovarian): 7.39 µM
TGI (OVCAR-4 ovarian): 14.9 µM
GI50 (OVCAR-5 ovarian): 8.56 µM
TGI (OVCAR-5 ovarian): 16.5 µM
GI50 (OVCAR-8 ovarian): 9.78 µM
TGI (OVCAR-8 ovarian): 20.8 µM
GI50 (PC-3 prostate): 8.28 µM
TGI (PC-3 prostate): 15.7 µM
GI50 (RPMI-8226 leukemia): 9.13 µM
TGI (RPMI-8226 leukemia): 21 µM
GI50 (RXF 393 renal): 6.95 µM
TGI (RXF 393 renal): 14.1 µM
GI50 (SF-268 CNS): 8.16 µM
TGI (SF-268 CNS): 17.2 µM
GI50 (SF-295 CNS): 7.93 µM
TGI (SF-295 CNS): 15.1 µM
GI50 (SF-539 CNS): 8.7 µM
TGI (SF-539 CNS): 16.9 µM
GI50 (SK-MEL-2 melanoma): 9.49 µM
TGI (SK-MEL-2 melanoma): 18.1 µM
GI50 (SK-MEL-5 melanoma): 8.13 µM
TGI (SK-MEL-5 melanoma): 14.9 µM
GI50 (SK-OV-3 ovarian): 7.36 µM
TGI (SK-OV-3 ovarian): 14.8 µM
GI50 (SN12C renal): 9.15 µM
TGI (SN12C renal): 17.9 µM
GI50 (SNB-19 CNS): 9.04 µM
TGI (SNB-19 CNS): 17.7 µM
GI50 (SNB-75 CNS): 6.56 µM
TGI (SNB-75 CNS): 13.5 µM
GI50 (SR leukemia): 9.08 µM
TGI (SR leukemia): 19 µM
GI50 (SW-620 colon): 8.57 µM
TGI (SW-620 colon): 15.6 µM
GI50 (TK-10 renal): 8.86 µM
TGI (TK-10 renal): 16.7 µM
GI50 (U251 CNS): 8.01 µM
TGI (U251 CNS): 15.4 µM
GI50 (UACC-257 melanoma): 9.23 µM
TGI (UACC-257 melanoma): 16.8 µM
GI50 (UACC-62 melanoma): 9.18 µM
TGI (UACC-62 melanoma): 16.8 µM
GI50 (UO-31 renal): 6.72 µM
TGI (UO-31 renal): 14.2 µM
